Experimental findings from US20160166570A1, “TREATMENT OR PREVENTION OF NON-INFLAMMATORY NEURONAL DAMAGE FROM BRAIN TRAUMA AND STROKES USING MENTHOL, LINALOOL AND/OR ICILIN” (NESTEC S.A., priority 2013, published 2016) are described below.

Structures are written as SMILES.

Test [1] has as its system Lateral Amygdala glutamatergic neuron. The experiment in a line: whole cell, current clamp recordings, square pulse at high depolarization, mouse brain slice. The test is classed as cell-based. To be noted: for action potentials at higher stimulation levels / amount of current required to trigger an action potential / threshold to trigger an action potential: as summarised from the experimental results; for amount of current required to trigger an action potential / threshold to trigger an action potential: neocortex; for inactivation of the sodium fast channels / further neuronal firing relative to control: square pulse of 2.5s at high depolarization of membrane potential (approximately −30 mV), FIG. 2. An excerpt:
(§1) A mouse brain slice was used to study the damage from Menthol, Linalool and Icilin. The amygdaloid complex is located within the medial temporal lobe in neocortex and amygdala. The lateral and basolateral nuclei of the amygdaloid complex receive sensory information from cortical and thalamic structures, process the information, and then transmit the information, either directly or through the basal nucleus, to the central nucleus. For experimental analysis of neuronal activity, synaptic responses from the basolateral complex can be evoked electrically using electrodes, and the action potentials can be measured. […] A square pulse of 2.5s was applied at high depolarization of membrane potential (approximately −30 mV).

Test [2] has the same test system. The experiment in a line: whole cell, current clamp recordings with increasing concentration of gabazine (spontaneous action potential bursts), mouse brain slice. It is filed as cell-based. Particulars: Menthol 250 μM extracellularly 10 minutes previous to and during increasing concentrations of gabazine; recordings of 5 min, washout 10 min; FIG. 5 vs FIG. 3.
Description: as §1, with “As shown, neurons spontaneously present action” for “A square pulse of 2.5s was applied at high depolarization of membrane”, “bursts due to massive presynaptic discharges.” for “(approximately −30 mV).”

With `O=C1NC(c2cccc([N+](=O)[O-])c2)=CCN1c1ccccc1O` [Icilin], in test [1], the “action potentials at higher stimulation levels” value (shortened to “action potentials”) is on record as “abort action potentials at higher stimulation levels”, the “amount of current required to trigger an action potential” value (“amount of current required” for short) was “increase the amount of current required to trigger an action potential”, the “threshold to trigger an action potential” value is recorded as “increase the threshold to trigger an action potential” and the “inactivation of the sodium fast channels / further neuronal firing relative to control” value is given as “inactivation of the sodium fast channels happens sooner relative to control”.
Consider `CC1CCC(C(C)C)C(O)C1` (stereo not shown) [Menthol], for which, in test [1], the “action potentials” value is reported as “abort action potentials at higher stimulation levels”, the “amount of current required” value was “increase the amount of current required to trigger an action potential”, the “threshold to trigger an action potential” value was “increase the threshold to trigger an action potential” and the “inactivation of the sodium fast channels / further neuronal firing relative to control” value is “inactivation of the sodium fast channels happens sooner relative to control”. Besides, the “spontaneous action potential bursts under gabazine” value in test [2] is “complete absence or a strongly decreased presence of spontaneous bursts”.
Consider `C=CC(C)(O)CCC=C(C)C` (stereo not shown) [Linalool], for which, in test [1], the “action potentials” value is “abort action potentials at higher stimulation levels”, the “amount of current required” value is “increase the amount of current required to trigger an action potential”, the “threshold to trigger an action potential” value is given as “increase the threshold to trigger an action potential” and the “inactivation of the sodium fast channels / further neuronal firing relative to control” value is on record as “inactivation of the sodium fast channels happens sooner relative to control”.
